Test results as given in patent US5607926A, “Cephalosporin antibiotics” (Microcide Pharmaceuticals, Inc., priority 1995, dated 1997).
In brackets after ≈: the same amount, converted by molar mass. Like-named read-outs stand apart in the source and are kept apart here.

Key:
S. haemolyticus (Meth^R) = test: In vitro antibacterial evaluation, MIC by agar dilution, S. haemolyticus; format: cell-based
In short: (§1)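 Log-phase isolates were spot-inoculated at about 10^4 cfu per spot onto Mueller-Hinton agar plates containing twofold compound dilutions (highest working concentration 128 μg/mL, lowest ≤0.25 μg/mL, duplicates). After 16-20 h at 35-36 °C, the lowest growth-inhibiting level was taken as MIC, per NCCLS agar dilution.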

S. aureus ATCC 25923 = test: In vitro antibacterial evaluation, MIC by agar dilution, S. aureus ATCC 25923; format: cell-based
In short: as §1

E. faecium ATCC 35667 = test: In vitro antibacterial evaluation, MIC by agar dilution, E. faecium ATCC 35667; format: cell-based
In short: as §1

[1] = test system: S. aureus 76 (Meth^R)(lac^+); test: In vitro antibacterial evaluation, MIC by agar dilution, S. aureus 76; format: cell-based
In short: as §1

P. aeruginosa ATCC 27853 = test: In vitro antibacterial evaluation, MIC by agar dilution, P. aeruginosa ATCC 27853; format: cell-based
In short: as §1

E. coli ATCC 25922 = test: In vitro antibacterial evaluation, MIC by agar dilution, E. coli ATCC 25922; format: cell-based
In short: as §1

E. faecalis ATCC 29212 = test: In vitro antibacterial evaluation, MIC by agar dilution, E. faecalis ATCC 29212; format: cell-based; conditions: E. faecalis ATCC 29212
In short: as §1

S. aureus ATCC 29213 = test: In vitro antibacterial evaluation, MIC by agar dilution, S. aureus ATCC 29213; format: cell-based; conditions: Staphylococcus aureus, ATCC29213
In short: as §1

[2] = test system: S. aureus Col8A (Meth^S)(lac^-); test: In vitro antibacterial evaluation, MIC by agar dilution, S. aureus Col8A; format: cell-based
In short: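 Log-phase isolates were spot-inoculated at about 10^4 cfu onto Mueller-Hinton agar carrying duplicate two-fold compound levels, 128 μg/mL to ≤0.25 μg/mL, following NCCLS (1991). Plates were read after 16-20 h at 35°-36° C. The lowest growth-inhibiting concentration gave the MIC (μg/ml).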

[3] = test system: S. epidermidis ATCC 31432; test: In vitro antibacterial evaluation, MIC by agar dilution, S. epidermidis ATCC 31432; format: cell-based
In short: as §1

[4] = test system: X. maltophilia ATCC 13637; test: In vitro antibacterial evaluation, MIC by agar dilution, X. maltophilia ATCC 13637; format: cell-based; conditions: Stenotrophomonas maltophilia, ATCC13637
Description: (§2) The compounds of the invention were evaluated against several β-lactamresistant bacteria strains by determining the minimum inhibitory concentration (MIC, μg/ml) of each compound with respect to each strain. The MIC, the lowest concentration of antibiotic which inhibits growth of the test organism, was determined by the agar dilution method.
(§3) To determine the MIC for bacterial isolates, the test compound was incorporated in a series of two-fold dilutions into liquified Mueller-Hinton agar. Upon solidification, a number of different bacterial strains were spot inoculated with a replicating device onto the agar surface. […] The procedures used in these studies have been standardized by the National Committee for Clinical Laboratory Standards (NCCLS), as per the NCCLS publication entitled METHODS FOR DILUTION ANTIMICROBIAL SUSCEPTIBILITY TESTS (1991), which is incorporated herein by reference.
(§4) Aliquots of antimicrobial agents were prepared in phosphate buffered saline (PBS) at pH 7.2. Tween 20 or DMSO was used as a solubilizing vehicle as needed. Standard methods of vortexing, sonicating and gentle heat were used to facilitate solubilizing the test agent. Typically, the concentration of the stock solution was 10× that of the highest drug concentration tested. A 1.28 mg/mL stock solution was used with a subsequent highest working concentration of 128 μg/mL. Serial two-fold dilutions were done through ≤0.25 μg/mL. Each drug level was tested in duplicate. Two-fold drug dilutions were done in sterile 50 mL tubes with a final drug volume of 5 mL. Upon the addition of 45 mL of molten agar, a 10-fold dilution resulted. Two, 25 mL. plates were then poured into 15×150 mm square Petri plates with grids and allowed to harden.
(§5) A control plate with a reference drug, either cefotaxime, vancomycin or imipenem, was used as the positive growth control. Stock concentrations of reference antibiotics were prepared and frozen at -80° C. Upon preparation, the control plates were sealed and stored in the refrigerator for up to 1 week prior to use; however, imipenem control plates had to be prepared just prior to use. All test plates were used within 24 hours of preparation.
(§6) Satisfactory results were obtained where the inoculum contained about 10^4 colony forming units (cfu) ±0.5 logs. Starting with pure cultures of the test isolates on agar plates, a few isolated colonies were transferred to a tube of nutrient broth and allowed to grow 4-6 hours at 35°-36° C. to reach log-phase growth. Dropwise addition of the broth culture to PBS was done to match a 0.5 McFarland turbidity standard equal to 10^8 cfu/mL. This was further diluted ten-fold in PBS to reach a working inoculum concentration of 10^7 cfu/mL. When 1 μL of the working inoculum was applied to the agar surface a concentration of about 10^4 cfu per spot was obtained.
(§7) Disposable sterile 1 μL loops were used to inoculate test plates, with each isolate in a designated grid on the agar plate. An alternate method of inoculation involved the use of a replica plater, a device with 48 steel pins allowing the simultaneous inoculation of multiple isolates. After the spots had dried, the plates were incubated at 35°-36° C. for 16-20 hours. Endpoints were assessed as the minimum inhibitory concentration (MIC) of antimicrobial agent.

[5] = test system: methicillinsusceptible S. aureus strain ATCC 13709; test: In vivo antibacterial evaluation, murine model for lethal bacteremic peritonitis; set-up: species or system S. aureus in female Swiss-Webster mice; conditions: Staphylococcus aureus, ATCC13709, sc, 72 h, two equal SC doses at challenge and 2 hours later, mice, probit, read-out: ED50
In short: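 Female Swiss-Webster mice received IP an LD100 bacterial titer in 7% hog gastric mucin, then two equal subcutaneous doses (at challenge and 2 h later) of two-fold increments of drug, range 0.01–512 mg/kg. Survival scored at 72 h; PD50 (total mg/kg) by probit, groups of 10.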

[6] = test system: methicillinsusceptible S. aureus strain ATCC 13709; test: Challenge strain MIC; format: cell-based; conditions: Staphylococcus aureus, ATCC13709, S. aureus ATCC 13709; read-out: Challenge str MIC
In short: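 MIC was found by agar dilution to NCCLS standards: two-fold compound dilutions from 128 μg/mL through ≤0.25 μg/mL in Mueller-Hinton agar, each level in duplicate. Log-phase inocula of about 10^4 cfu per spot were applied. Plates were incubated 16-20 h at 35°-36° C, and the MIC was the lowest concentration inhibiting growth.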

[7] = test system: S. aureus Col (Meth^R)(lac^-); test: In vitro antibacterial evaluation, MIC by agar dilution, S. aureus Col; format: cell-based
Description: as §2, §3, §4, §5, §6, §7
The novel agents of this invention are notable for their enhanced activity against S. aureus Col and Enterococci (E. faecium and E. faecalis). […]

[8] = Staphylococcus haemolyticus, read-out: MIC
[9] = Staphylococcus aureus, ATCC25923, S. aureus ATCC 25923, read-out: MIC
[10] = Enterococcus faecium, ATCC35667, read-out: MIC
[11] = Staphylococcus aureus, read-out: MIC
[12] = Pseudomonas aeruginosa, ATCC27853, read-out: MIC
[13] = Escherichia coli, ATCC25922, read-out: MIC
[14] = Enterococcus faecalis, ATCC29212, read-out: MIC
[15] = Staphylococcus epidermidis, ATCC31432, S. epidermidis ATCC 31432, read-out: MIC
[16] = S. aureus ATCC 29213, read-out: MIC
[17] = Staphylococcus aureus, ATCC25923
[18] = Staphylococcus epidermidis, ATCC31432

Compound | MIC (S. haemolyticus (Meth^R); [8]) [µg/mL] | MIC (S. aureus ATCC 25923; [9]) [µg/mL] | MIC (E. faecium ATCC 35667; [10]) [µg/mL] | MIC [1, 11] [µg/mL] | MIC (P. aeruginosa ATCC 27853; [12]) [µg/mL] | MIC (E. coli ATCC 25922; [13]) [µg/mL] | MIC (E. faecalis ATCC 29212; [14]) [µg/mL] | MIC (S. aureus ATCC 29213) [µg/mL] | MIC ([2]; Staphylococcus aureus) [µg/mL] | MIC [3, 15] [µg/mL] | MIC [4] [µg/mL] | further results
O=C(Cc1ccccc1)N[C@@H]1C(=O)N2C(C(=O)O)=C(Sc3ccc(Br)cc3-c3ccccc3)CS[C@H]12 [Cmpd 14, (7R)-7-[(Phenylacetyl)amino]-3-(4-bromo-2-biphenylthio)-3-cephem-4-carboxylic acid] | 8 (≈ 13.8 µM) | 0.06 (≈ 0.103 µM) | 1 (≈ 1.72 µM) | 4 (≈ 6.88 µM) | > 32 | > 32 | 2 (≈ 3.44 µM) | 0.25 (≈ 0.43 µM) | 0.25 (≈ 0.43 µM) | 0.06 (≈ 0.103 µM) | > 32 | –
CO/N=C(\C(=O)N[C@@H]1C(=O)N2C(C(=O)O)=C(COC(C)=O)CS[C@H]12)c1csc(N)n1 [Cefotaxime, (7R)-3-Acetoxymethyl-7-[(Z)-2-(aminothiazol-4-yl)-2-(methoxyimino)acetamido]-3-cephem-4-carboxylic acid, reference compound] | > 32 | < 1 | > 32 | – | 8 to 16 (≈ 17.6 to 35.1 µM) | < 1 | > 32 | – | 2 (≈ 4.39 µM) | 2 (≈ 4.39 µM) | > 32 | ED50 [5]: 7.47 mg/kg; MIC (S. aureus ATCC 29213; [16]): 2 µg/mL (≈ 4.39 µM); MIC [6]: 2 µg/mL (≈ 4.39 µM)
O=C(Cc1ccccc1)N[C@@H]1C(=O)N2C(C(=O)O)=C(Sc3ccccc3-c3ccccc3)CS[C@H]12 [Cmpd 9, (7R)-7-((Phenylacetyl)amino]-3-(2-biphenylthio)-3-cephem-4-carboxylic acid] | 0.125 (≈ 0.249 µM) | 0.125 (≈ 0.249 µM) | 2 (≈ 3.98 µM) | 8 (≈ 15.9 µM) | > 32 | > 32 | 4 (≈ 7.96 µM) | 0.25 (≈ 0.497 µM) | 0.25 (≈ 0.497 µM) | 0.125 (≈ 0.249 µM) | > 32 | activity against S. aureus Col, S. aureus Col 8A and Enterococci [7]: broad activity against both S. aureus Col and S. aureus Col 8A, as well as Enterococci
O=C(Cc1ccccc1)N[C@@H]1C(=O)N2C(C(=O)O)=C(Sc3cccc(I)c3)CS[C@H]12 [Cmpd 2, (7R)-7-[(Phenylacetyl)amino]-3-(m-iodophenylthio)-3-cephem-4-carboxylic acid] | 16 (≈ 29 µM) | < 0.015 | 2 (≈ 3.62 µM) | 16 (≈ 29 µM) | > 32 | > 32 | 2 (≈ 3.62 µM) | – | 0.03 (≈ 0.0543 µM) | < 0.015 | > 32 | MIC (S. aureus ATCC 29213; [16]): 0.03 µg/mL (≈ 0.0543 µM)
(7R)-7-[(Phenylacetyl)amino]-3-(2,3-dihydro-2,2-dimethylbenzofuran-7-yl)-3-cephem-4-carboxylic acid [Cmpd 55] | – | – | – | – | – | – | – | – | – | – | – | MIC (S. haemolyticus (Meth^R)): 16 µg/mL; MIC (S. aureus ATCC 25923; S. aureus ATCC 25923): < 0.25 µg/mL; MIC (E. faecium ATCC 35667): 8 µg/mL; MIC [1]: 16 µg/mL; MIC (P. aeruginosa ATCC 27853): > 32 µg/mL; MIC (E. coli ATCC 25922): > 32 µg/mL; MIC (E. faecalis ATCC 29212): 16 µg/mL; MIC ([2]; S. aureus Col8A (Meth^S)(lac^-), lacks PBP2a): < 0.25 µg/mL; MIC ([3]; S. epidermidis ATCC 31432): < 0.25 µg/mL; MIC ([7]; S. aureus Col (Meth^R)(lac^-), high-level PBP2a producer): 4 µg/mL
O=C(Cc1ccccc1)N[C@@H]1C(=O)N2C(C(=O)O)=C(Sc3ccccc3I)CS[C@H]12 [Cmpd 6, (7R)-7-[(Phenylacetyl)amino]-3-(o-iodophenylthio)-3-cephem-4-carboxylic acid] | 4 (≈ 7.24 µM) | – | 0.5 (≈ 0.905 µM) | 1 (≈ 1.81 µM) | > 32 | > 32 | 0.5 (≈ 0.905 µM) | < 0.015 | < 0.015 | – | > 32 | MIC (S. aureus ATCC 25923; [17]): < 0.015 µg/mL; MIC [3, 18]: < 0.015 µg/mL; activity against S. aureus Col, S. aureus Col 8A and Enterococci [7]: broad activity against both S. aureus Col and S. aureus Col 8A, as well as Enterococci
N=C(N)SCc1ccc(SC2=C(C(=O)O)N3C(=O)[C@@H](NC(=O)Cc4ccccc4)[C@H]3SC2)c(I)c1 [Cmpd 58, (7R)-7-[(Phenylacetyl)amino]-3-(4-isothiouroniummethyl-2-iodophenylthio)-3-cephem-4-carboxylic acid] | 4 (≈ 6.24 µM) | – | 0.5 (≈ 0.781 µM) | 4 (≈ 6.24 µM) | > 32 | 32 (≈ 50 µM) | 1 (≈ 1.56 µM) | – | < 0.25 | – | – | MIC (S. aureus ATCC 25923; [17]): < 0.25 µg/mL; MIC [3, 18]: < 0.25 µg/mL; MIC ([7]; Staphylococcus aureus): < 0.25 µg/mL
